# Literature values as cited in patent EP1214078B1, “FORMULATIONS FOR PARENTERAL USE OF ES[…] AND AMINO ACIDS” (priority 1999, dated 2001).
# Details: patients, slow intravenous injection or bolus, 300 mg/day
structure (smiles),measurement,value
"C[C@]12CC[C@@H]3c4ccc(OC(=O)N(CCCl)CCCl)cc4CC[C@H]3[C@@H]1CC[C@@H]2OP(=O)(O)O [estramustine phosphate, Estramustine phosphate]",side effects at the peripheral intravenous injection sites,thrombophlebitis and local irritations
